Reference: patent US5162203A, “Methods of measuring isozymes and isozyme classes of alcohol dehydrogenase” (President and Fellows of Harvard College, priority 1989, dated 1992)

Legend:
[1] = target: ADH in human serum (Class II) (Homo sapiens, UniProt P08319); assay: Fluorometric measurement of serum ADH activity with substrate IIA; format: biochemical
Procedure: (§1) All reaction mixtures (3 ml total volume) were prepared directly in 1 cm pathlength, 4 ml fluorometric cuvettes by adding 150 μl of the 300 μM substrate solution (e.g substrate IA or IIA) 100 μl of the 1 mM NADH solution (prepared as in part 5 above) and 2.69 ml of assay buffer (0.1M phosphate, pH 7.6). After thermal equilibration (25° C.) for 5 minutes, 60 μl of isozyme sample (either serum or purified ADH isozymes) was added to the cuvette.
The linear increase of fluorescence was then recorded for 1-10 minutes, until 0.03-1 μM of substrate was consumed. Larger substrate consumption was not found to be desirable (described in subpart (c) below). After this period the instrument sensitivity setting was reduced 10-30 fold, the signal compensated once again by zero suppression (see part 6 above), and 60 μl of 200-400 μM product (e.g., product IB or IIB) was added to provide an internal standard. The added product fluorescence intensity was then measured Fluorescence measurements were optimized for samples with low activity (<1 nM/minute). […] Rates measured in the presence of the 0.2 mM ADH inhibitors. […]
(§2) The rates of aldehyde reduction, determined as initial velocities (V) and expressed in units of nM/minute, were calculated according to: [formula] where the quantity in parentheses is the slope of the linear fluorescence increase calculated from the quantities Ft and FO, the fluorescence at time t and at the beginning of the reaction, respectively. Cst is the concentration of the product used as a standard added to the cuvette after the initial rate had been measured and Fst is the fluorescence intensity of the added product
Using the instrumentation described in Example 1, part 7, reaction rates as low as 6.5 nM/minute for IA and 25 nM/minute for IIA were reproducible. The limits of detection, i.e.. the point at which the fluorescence change after eight minutes becomes twice the noise level, were 1 nM/minute and 5 nM/minute for the two substrates, IA and IIA, respectively. […]

αγ1 ADH (Class I) = target: T1, αγ1 ADH (Class I) (Homo sapiens, UniProt P00326+P07327); assay: Kinetics of enzymatic reduction of methoxynaphthaldehydes by αγ1 ADH; format: biochemical; settings: rate relative to ethanol oxidation at pH 10.0
T1 construct: gamma1 allele (ADH1C*1, Arg271 and Ile349 in mature count)

Class I ADH = assay: Kinetics of enzymatic reduction of methoxynaphthaldehydes by Class I ADH isozymes; format: biochemical, human; settings: for kcat / Km: Table IV; for kcat: average for Class I isozymes except ββ forms; for Km: range over Class I isozymes
Procedure: (§3) Aldehyde reduction was monitored by following the decrease of absorption at 340 nm in 40 mM Mes buffer, pH 7.1. in the presence of saturating NADH, 50 μM for Class I and 100 μM for Class II. […] Initial reaction rates were measured and kinetic parameters determined by conventional procedures as described by Segel, 1975, Enzyme Kinetics, pp. 591-597, Wiley, N.Y.
as §1
The linear increase of fluorescence was then recorded for 1-10 minutes, until 0.03-1 μM of substrate was consumed. Larger substrate consumption was not found to be desirable (described in subpart (c) below). After this period the instrument sensitivity setting was reduced 10-30 fold, the signal compensated once again by zero suppression (see part 6 above), and 60 μl of 200-400 μM product (e.g., product IB or IIB) was added to provide an internal standard. The added product fluorescence intensity was then measured Fluorescence measurements were optimized for samples with low activity (<1 nM/minute). For samples with higher activity, repeat measurements were made with the serum volume reduced from 60 μl to 10 μl. Rates measured in the presence of the 0.2 mM ADH inhibitors. 4-MeP or 4-PeP, were made by adding 50 μl of 12 mM inhibitor to the cuvette prior to the assay buffer, and the reaction was carried out as above.
as §2
Additionally the reaction rates for these isozymes were compared to those measured by the standard assay for ethanol oxidation (see part 7 above) at pH 10.0 the optimum for oxidation of ethanol by ADH. The rate of IA reduction for all Class I isozymes except the β1 β1 form is 1.5- to 4-fold faster than that of ethanol oxidation as measured by the conventional ethanol oxidation assay. […] Table III illustrates that IIA is an excellent substrate for Class II (.eta.) ADH, with a rate of IIA reduction at least 8-fold faster than that of ethanol oxidation.
The values for these constants were determined with purified Class II ADH or a mixture of purified Class I isozymes, under the fluorometric assay conditions described above in Example 1.

Class III (.chi.) ADH = Class III (.chi.) ADH (Homo sapiens, UniProt P11766); assay: Kinetics of enzymatic reduction of methoxynaphthaldehydes by Class III ADH; format: biochemical
β1 γ2 ADH (Class I) = target: T2, β1 γ2 ADH (Class I) (Homo sapiens, UniProt P00325+P00326, I350V/R272Q); assay: Kinetics of enzymatic reduction of methoxynaphthaldehydes by β1γ2 ADH; format: biochemical; settings: rate relative to ethanol oxidation at pH 10.0
T2 construct: beta1 (ADH1B*1) and gamma2 (ADH1C*2) alleles
Procedure: Standard assays for ethanol oxidation activity (Dalziel, 1957, Acta Chem Scand 11:1706-23) were carried out on a Cary 219 spectrophotometer interfaced with an Apple IIe microcomputer, using software provided by Varian Associates. The reaction mixture contained 2.5 mM NAD^+ in 0.1M glycine-NaOH buffer. pH 10.0, and 33 mM or 0.2M ethanol for Class I and Class II ADH, respectively.
as §3, with “N.Y. […]” for “N.Y.”
(§4) The linear increase of fluorescence was then recorded for 1-10 minutes, until 0.03-1 μM of substrate was consumed. […] The added product fluorescence intensity was then measured Fluorescence measurements were optimized for samples with low activity (<1 nM/minute). […] Rates measured in the presence of the 0.2 mM ADH inhibitors. […]
Additionally the reaction rates for these isozymes were compared to those measured by the standard assay for ethanol oxidation (see part 7 above) at pH 10.0 the optimum for oxidation of ethanol by ADH. […]

γ1 γ1 ADH (Class I) = target: T3, γ1 γ1 ADH (Class I) (Homo sapiens, UniProt P00326); assay: Kinetics of enzymatic reduction of methoxynaphthaldehydes by γ1γ1 ADH; format: biochemical; settings: rate relative to ethanol oxidation at pH 10.0
T3 construct: gamma1 allele (ADH1C*1, Arg271 and Ile349 in mature count)

Class II (π) ADH = Class II (π) ADH (Homo sapiens, UniProt P08319); assay: Kinetics of enzymatic reduction of methoxynaphthaldehydes by Class II ADH; format: biochemical; settings: for v/v (EtOH): rate relative to ethanol oxidation at pH 10.0
β2 β2 ADH (Class I) = target: T4, β2 β2 ADH (Class I) (Homo sapiens, UniProt P00325); assay: Kinetics of enzymatic reduction of methoxynaphthaldehydes by β2β2 ADH; format: biochemical; settings: Table IV; nm = not measurable
T4 construct: beta2 allele (ADH1B*2)
Procedure: as §3
as §1, with “After thermal equilibration (25° C.) for 5 minutes, 60 μl of isozyme sample (either serum or purified ADH isozymes) was added to the cuvette.” left out
as §4
as §2, with “Cst is the concentration of the product used as a standard added to the cuvette after the initial rate had been measured and Fst is the fluorescence intensity of the added product” left out

[2] = system: ADH in human serum (Class I); assay: Fluorometric measurement of serum ADH activity with substrate IA; format: biochemical; settings: between-run repeatability, 2 minutes reaction, n=5
Procedure: as §1
as §4, with “consumed. Larger substrate consumption was not found to be desirable (described in subpart (c) below).” for “consumed.”
as §2, with “added product […]” for “added product”

[3] = pH 7.0, 50 μM NADH, spectrophotometric

Chain of Class III (.chi.) ADH (P11766 whole entry): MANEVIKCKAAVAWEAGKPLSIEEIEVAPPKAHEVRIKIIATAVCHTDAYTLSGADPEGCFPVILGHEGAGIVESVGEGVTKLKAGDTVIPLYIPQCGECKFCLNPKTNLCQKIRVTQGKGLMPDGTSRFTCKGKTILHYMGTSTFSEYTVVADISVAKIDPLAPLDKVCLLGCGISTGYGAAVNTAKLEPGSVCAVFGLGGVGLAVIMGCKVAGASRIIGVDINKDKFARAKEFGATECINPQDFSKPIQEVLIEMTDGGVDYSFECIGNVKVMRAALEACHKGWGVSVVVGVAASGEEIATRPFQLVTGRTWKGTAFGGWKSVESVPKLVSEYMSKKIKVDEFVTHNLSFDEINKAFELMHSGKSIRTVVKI
Chain of Class II (π) ADH (P08319 whole entry): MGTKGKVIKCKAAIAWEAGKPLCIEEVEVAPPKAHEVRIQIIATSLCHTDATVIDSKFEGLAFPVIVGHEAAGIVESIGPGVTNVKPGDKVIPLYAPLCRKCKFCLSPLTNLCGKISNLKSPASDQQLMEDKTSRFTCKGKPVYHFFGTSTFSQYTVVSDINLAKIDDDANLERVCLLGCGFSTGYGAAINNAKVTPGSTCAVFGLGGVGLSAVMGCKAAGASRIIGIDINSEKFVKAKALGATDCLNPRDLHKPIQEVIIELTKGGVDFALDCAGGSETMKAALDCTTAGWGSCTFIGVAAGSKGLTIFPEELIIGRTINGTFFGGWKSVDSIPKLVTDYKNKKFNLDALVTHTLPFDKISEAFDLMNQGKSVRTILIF
Chain of ADH in human serum (Class II) (P08319 whole entry): as above
T2 sequence (P00325 2-375, stated change not applied): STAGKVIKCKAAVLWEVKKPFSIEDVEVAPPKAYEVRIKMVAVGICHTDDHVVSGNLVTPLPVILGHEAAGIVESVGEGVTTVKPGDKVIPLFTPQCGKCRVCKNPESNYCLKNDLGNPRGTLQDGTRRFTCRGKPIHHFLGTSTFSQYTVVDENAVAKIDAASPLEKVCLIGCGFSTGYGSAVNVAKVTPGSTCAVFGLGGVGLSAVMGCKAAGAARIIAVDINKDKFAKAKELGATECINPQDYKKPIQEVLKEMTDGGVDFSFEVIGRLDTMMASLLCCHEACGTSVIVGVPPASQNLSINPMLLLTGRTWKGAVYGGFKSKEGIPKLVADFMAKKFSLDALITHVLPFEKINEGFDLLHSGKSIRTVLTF
T2 sequence (P00326 2-375 R272Q/I350V): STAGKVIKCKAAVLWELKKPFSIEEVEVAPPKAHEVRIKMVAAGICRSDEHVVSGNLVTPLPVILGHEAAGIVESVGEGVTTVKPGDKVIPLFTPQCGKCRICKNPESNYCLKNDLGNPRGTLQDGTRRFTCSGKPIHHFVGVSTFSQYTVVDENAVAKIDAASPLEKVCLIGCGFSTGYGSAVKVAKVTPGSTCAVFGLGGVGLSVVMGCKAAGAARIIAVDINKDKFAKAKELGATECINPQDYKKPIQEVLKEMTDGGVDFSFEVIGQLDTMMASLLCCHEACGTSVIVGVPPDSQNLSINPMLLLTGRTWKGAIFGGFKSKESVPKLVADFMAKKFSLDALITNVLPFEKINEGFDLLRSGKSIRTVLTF
T1 sequence (P07327 2-375): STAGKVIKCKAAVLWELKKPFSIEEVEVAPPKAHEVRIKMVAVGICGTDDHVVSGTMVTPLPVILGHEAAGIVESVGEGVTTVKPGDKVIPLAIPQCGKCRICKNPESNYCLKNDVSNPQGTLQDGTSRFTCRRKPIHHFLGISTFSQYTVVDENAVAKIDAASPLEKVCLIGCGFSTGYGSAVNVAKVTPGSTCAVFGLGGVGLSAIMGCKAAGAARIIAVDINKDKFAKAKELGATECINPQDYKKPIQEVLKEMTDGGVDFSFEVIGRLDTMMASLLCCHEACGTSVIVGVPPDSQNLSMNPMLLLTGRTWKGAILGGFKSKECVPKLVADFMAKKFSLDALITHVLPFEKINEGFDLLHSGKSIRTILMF
T1 sequence (P00326 2-375): as the sequence (P00326 2-375 R272Q/I350V) above, with Q271R, V349I counted along it
T3 sequence (P00326 2-375): as the sequence (P00326 2-375 R272Q/I350V) above, with Q271R, V349I counted along it
T4 sequence (P00325 2-375): as the sequence (P00325 2-375, stated change not applied) above

In the case of `COc1ccc2cc(C=O)ccc2c1` [IIA, 6-methoxy-2-naphthaldehyde], the limit of detection ([1]; fluorescence change twice noise after eight minutes) is reported as 5 nM/min, the “lowest reproducible reaction rate” value ([1]; serum) is reported as 25 nM/min and the “serum activity for IIA” value ([1]; thirty of thirty six hospital patient sera, average) is reported as 15 ± 7 nM/min. The “v/v (EtOH)” value (αγ1 ADH (Class I)) was 1.06, the “rate of reduction versus ethanol oxidation” value (Class I ADH; Class I isozymes, words) was “generally slower, but still comparable” and the kcat (Class I ADH) was 1.83 s⁻¹. For the same molecule, the Km (Class I ADH) was 0.4 to 11.5 µM, the “d: ratio of specific rates for Class I ADH with IIA and IA as substrates” value (Class I ADH; average value) was 0.27 and the “ratio of specific rates for Class I to Class II ADH with IIA as substrate” value (Class I ADH; average value) was 0.27. The Km (Class III (.chi.) ADH; Class III ADH) was > 500 µM, the Km (Class III (.chi.) ADH; pH 7.0, 50 μM NADH, NR = no reaction detected) was > 500 µM and the “substrate quality for Class III ADH” value (Class III (.chi.) ADH; words) was “very poor substrate”. For the same molecule, the “v/v (EtOH)” value (β1 γ2 ADH (Class I)) was 1.6, the “v/v (EtOH)” value (γ1 γ1 ADH (Class I)) was 0.45 and the “kcat for Class II relative to Class I isozymes” value (Class II (π) ADH) was 10 fold. For the same molecule, the kcat (Class II (π) ADH; Class II) was 25 s⁻¹, the “rate of reduction relative to ethanol oxidation” value (Class II (π) ADH; Class II ADH) was “at least 8 fold” and the kcat (Class II (π) ADH; [3]) was 25 s⁻¹. For the same molecule, the “v/v (EtOH)” value (Class II (π) ADH) was 8.0.

For `COc1ccc(C=O)c2ccccc12` [IA, 4-methoxy-1-naphthaldehyde], the Km (β2 β2 ADH (Class I)) was “nM”, the “v/v (EtOH)” value (αγ1 ADH (Class I)) was 2.71 and the kcat (Class I ADH) was 5.83 s⁻¹. For the same molecule, the Km (Class I ADH) was 0.6 to 8.5 µM, the “a: ratio of specific rates for Class I to Class II ADH with IA as substrate” value (Class I ADH; fluorometric assay conditions) was 0.022 and the “v/v (EtOH)” value (β1 γ2 ADH (Class I)) was 3.4. The “v/v (EtOH)” value (γ1 γ1 ADH (Class I)) was 1.54, the Average rate [2] was 144.8 nM/min and the kcat (Class II (π) ADH; [3]) was 0.833 s⁻¹. For the same molecule, the “v/v (EtOH)” value (Class II (π) ADH) was 0.20.
